Measured values: patent US20090081310A1, “METHOD FOR R[…] STRUCTURE CO[…] MOLD” (priority 2004, published 2009)

Legend:
mold and mold spores [1] = assay: Fumigation of an approximately 6000 square feet mold-contaminated structure with chlorine dioxide gas (Example 2); conditions: 600 to 1300 ppmv for 12 hours, total CT over 9000 ppmv hours; 70 to 100° F., minimum 65% relative humidity; including mold underneath wallpaper
Experimental: A structure of approximately 6000 square feet consisting of three above surface floors and a basement was located that had developed significant mold growth of a variety of species due to water intrusion and appropriate environmental conditions. […] Mold growth was visible and abundant upon walls, ceilings and other surfaces.
The temperature of the structure was raised and maintained in the range of 70 to 100° F. (21 to 38° C.) and the relative humidity was raised to a minimum of 65%. Chlorine dioxide solution was generated in a closed fluid loop by the process described in U.S. Pat. No. 6,468,479. Chlorine dioxide gas was added to the structure at such a rate as to maintain a concentration of between 600 and 1300 ppmv for a 12 hour period and a total CT of over 9000 ppmv hours of chlorine dioxide.
Chlorine dioxide concentration and purity were monitored by AWWA standard method 6500-ClO2-E in solution phase and a modification therewith to adapt the procedure for gas phase sampling. […] The maximum chlorine dioxide concentration detected exterior to the containment tent was less than 2 parts per billion, well within the maximum exposure guidelines established.
Following treatment mold viability was evaluated in the structure. […]

mold and mold spores [2] = assay: Fumigation of an approximately 50,000 ft^2 mold-contaminated building with chlorine dioxide gas (Example 1); conditions: 2,500 to 3,000 ppmv over 3 hours; approx. 75° F., approx. 75% relative humidity
Experimental: An approximately 50,000 ft^2 mold-contaminated building (1 million cubic feet approximately) was remediated by fumigating the building with chlorine dioxide gas at a concentration within the range of 2,500 to 3,000 ppmv over a period of 3 hours. Temperature was maintained at approximately 75° F. and the relative humidity was maintained at approximately 75% before and during fumigation. Carpets and other porous materials within the contaminated building were not removed prior to fumigation. […] Porous surfaces that were black, grey and green shades prior to treatment were returned to original appearance. The mold mass was also substantially eliminated such that one to four square foot samples were required to collect 0.1 to 0.25 grams of mold residue resulting in a 99+ percent elimination in mold mass. Samples of the treated material were analyzed by PCR (polymerase chain reaction) analysis for DNA. Depending upon the initial concentration levels a 3 to 7 log reduction in DNA was observed.

mold spores = assay: Mold remediation with chlorine dioxide gas, general finding; conditions: time averaged concentration about 500 to 1500 ppmv over a 12 hour period
Experimental: It is an aspect of this invention to minimize the chlorine dioxide concentration and CT to the extent possible to assure decontamination while avoiding damage to building contents such as electronic equipment (e.g., telephone equipment, computers, copiers, and other electronic office equipment), furnishings, and the like. Typical chlorine dioxide concentrations are in the range of 500 to 3000 ppmv, and exposure times are typically about 8 to 12 hours. For mold remediation, a time averaged chlorine dioxide gas concentration in the range of about 500 to 1500 ppmv over a 12 hour period has been found effective for killing mold spores and eliminating allergenic effects.

[O][Cl+][O-] [chlorine dioxide gas, chlorine dioxide]
mold and mold spores rendered non viable (mold and mold spores [1]): ~100% | elimination in mold mass (mold and mold spores [2]): ≥ 99% | viable mold and mold spores in the facility (mold and mold spores [2]): substantially eliminated viable mold and mold spores | killing mold spores and eliminating allergenic effects (mold spores): effective
